The text below walks through data of PMC4854315, “Discovery of a novel allosteric inhibitor-binding site in ERK5: comparison with the canonical kinase hinge ATP-binding site” (Acta Crystallographica. Section D, Structural Biology, 2016).

Common to all, as to test: Z'-LYTE kinase panel
Format in all cases: biochemical

One assay addresses T1, PTK2B (FAK2) (Homo sapiens, UniProt Q14289).
T1 construct: purchased ThermoFisher (SelectScreen, Z'-LYTE)
In outline: (§1)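 Screened at 10 µM against a 225-kinase panel; the Z′-LYTE standard assay gave percentage inhibition values.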

The next assay concerns the target T2, MAPKAPK2 (Homo sapiens, UniProt P49137).
T2 construct: purchased ThermoFisher (SelectScreen, Z'-LYTE)
In outline:
as §1

The next assay concerns the target T3, RPS6KA5 (MSK1) (Homo sapiens, UniProt O75582).
T3 construct: purchased ThermoFisher (SelectScreen, Z'-LYTE)
In outline:
as §1

In a further assay the target is T4, ROCK1 (Homo sapiens, UniProt Q13464).
T4 construct: purchased ThermoFisher (SelectScreen, Z'-LYTE)
In outline:
as §1

The target of another assay is T5, CSNK1G2 (CK1 gamma 2) (Homo sapiens, UniProt P78368).
T5 construct: purchased ThermoFisher (SelectScreen, Z'-LYTE)
In outline: as §1

A further assay addresses T6, MKNK1 (MNK1) (Homo sapiens, UniProt Q9BUB5).
T6 construct: purchased ThermoFisher (SelectScreen, Z'-LYTE)
In outline: as §1

In a further assay the target is T7, FGR (Homo sapiens, UniProt P09769).
T7 construct: purchased ThermoFisher (SelectScreen, Z'-LYTE)
In outline:
as §1

A further assay has as its target T8, PRKCH (PKC eta) (Homo sapiens, UniProt P24723).
T8 construct: purchased ThermoFisher (SelectScreen, Z'-LYTE)
In outline: as §1

The target in a further assay is T9, EEF2K (Homo sapiens, UniProt O00418).
T9 construct: purchased ThermoFisher (SelectScreen, Z'-LYTE)
In outline: as §1

The target in the next assay is T10, NTRK2 (TRKB) (Homo sapiens, UniProt Q16620).
T10 construct: purchased ThermoFisher (SelectScreen, Z'-LYTE)
In outline:
as §1

Another assay concerns the target T11, PASK (Homo sapiens, UniProt Q96RG2).
T11 construct: purchased ThermoFisher (SelectScreen, Z'-LYTE)
In outline: as §1

The target of a further assay is T12, CDC42 BPA (MRCKA) (Homo sapiens, UniProt Q5VT25).
T12 construct: purchased ThermoFisher (SelectScreen, Z'-LYTE)
In outline: as §1

For the next assay, the target named is T13, HIPK2 (Homo sapiens, UniProt Q9H2X6).
T13 construct: purchased ThermoFisher (SelectScreen, Z'-LYTE)
In outline: as §1

For a further assay, the target named is T14, PLK2 (Homo sapiens, UniProt Q9NYY3).
T14 construct: purchased ThermoFisher (SelectScreen, Z'-LYTE)
In outline: as §1

For another assay, the target named is T15, TEK (Tie2) (Homo sapiens, UniProt Q02763).
T15 construct: purchased ThermoFisher (SelectScreen, Z'-LYTE)
In outline: as §1

Another assay deals with T16, NEK7 (Homo sapiens, UniProt Q8TDX7).
T16 construct: purchased ThermoFisher (SelectScreen, Z'-LYTE)
In outline: as §1

A further assay concerns the target T17, PRKACA (PKA) (Homo sapiens, UniProt P17612).
T17 construct: purchased ThermoFisher (SelectScreen, Z'-LYTE)
In outline:
as §1

Another assay concerns the target T18, PIM2 (Homo sapiens, UniProt Q9P1W9).
T18 construct: purchased ThermoFisher (SelectScreen, Z'-LYTE)
In outline: as §1

The target in the next assay is T19, MARK3 (Homo sapiens, UniProt P27448).
T19 construct: purchased ThermoFisher (SelectScreen, Z'-LYTE)
In outline: as §1

The target of a further assay is T20, SYK (Homo sapiens, UniProt P43405).
T20 construct: purchased ThermoFisher (SelectScreen, Z'-LYTE)
Conditions: 10 µM compound, ATP Km app. In outline: as §1

The target of the next assay is T21, EPHB4 (Homo sapiens, UniProt P54760).
T21 construct: purchased ThermoFisher (SelectScreen, Z'-LYTE)
T21 sequence (P54760 16-987): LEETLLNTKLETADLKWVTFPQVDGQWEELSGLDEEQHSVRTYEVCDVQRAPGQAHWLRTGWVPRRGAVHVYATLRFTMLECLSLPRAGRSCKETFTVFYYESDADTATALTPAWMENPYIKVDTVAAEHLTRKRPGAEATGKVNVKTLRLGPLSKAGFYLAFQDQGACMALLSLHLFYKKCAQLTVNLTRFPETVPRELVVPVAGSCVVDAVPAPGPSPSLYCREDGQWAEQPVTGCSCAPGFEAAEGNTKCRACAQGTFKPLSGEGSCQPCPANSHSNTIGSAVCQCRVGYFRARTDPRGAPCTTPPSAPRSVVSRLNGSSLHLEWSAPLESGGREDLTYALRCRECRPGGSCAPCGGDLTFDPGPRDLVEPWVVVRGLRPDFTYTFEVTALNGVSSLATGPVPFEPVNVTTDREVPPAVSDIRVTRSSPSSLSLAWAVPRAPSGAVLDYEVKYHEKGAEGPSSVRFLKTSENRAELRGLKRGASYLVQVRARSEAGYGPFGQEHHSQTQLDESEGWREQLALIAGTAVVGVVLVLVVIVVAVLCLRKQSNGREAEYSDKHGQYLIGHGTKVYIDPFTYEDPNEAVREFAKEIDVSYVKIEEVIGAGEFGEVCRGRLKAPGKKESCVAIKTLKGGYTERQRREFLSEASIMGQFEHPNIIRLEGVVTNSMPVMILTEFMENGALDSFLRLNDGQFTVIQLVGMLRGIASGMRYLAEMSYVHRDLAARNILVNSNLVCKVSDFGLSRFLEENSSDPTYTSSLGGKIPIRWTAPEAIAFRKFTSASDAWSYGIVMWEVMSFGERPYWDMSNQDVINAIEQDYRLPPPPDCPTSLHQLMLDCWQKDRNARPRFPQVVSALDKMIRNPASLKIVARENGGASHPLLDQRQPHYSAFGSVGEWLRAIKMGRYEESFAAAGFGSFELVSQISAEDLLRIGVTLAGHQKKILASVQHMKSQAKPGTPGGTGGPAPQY
In outline: as §1

The target of the next assay is T22, CAMK2D (CaMKII delta) (Homo sapiens, UniProt Q13557).
T22 construct: purchased ThermoFisher (SelectScreen, Z'-LYTE)
In outline:
as §1

The target in a further assay is T23, CLK1 (Homo sapiens, UniProt P49759).
T23 construct: purchased ThermoFisher (SelectScreen, Z'-LYTE)
In outline: as §1

T13 sequence (Q9H2X6 whole entry): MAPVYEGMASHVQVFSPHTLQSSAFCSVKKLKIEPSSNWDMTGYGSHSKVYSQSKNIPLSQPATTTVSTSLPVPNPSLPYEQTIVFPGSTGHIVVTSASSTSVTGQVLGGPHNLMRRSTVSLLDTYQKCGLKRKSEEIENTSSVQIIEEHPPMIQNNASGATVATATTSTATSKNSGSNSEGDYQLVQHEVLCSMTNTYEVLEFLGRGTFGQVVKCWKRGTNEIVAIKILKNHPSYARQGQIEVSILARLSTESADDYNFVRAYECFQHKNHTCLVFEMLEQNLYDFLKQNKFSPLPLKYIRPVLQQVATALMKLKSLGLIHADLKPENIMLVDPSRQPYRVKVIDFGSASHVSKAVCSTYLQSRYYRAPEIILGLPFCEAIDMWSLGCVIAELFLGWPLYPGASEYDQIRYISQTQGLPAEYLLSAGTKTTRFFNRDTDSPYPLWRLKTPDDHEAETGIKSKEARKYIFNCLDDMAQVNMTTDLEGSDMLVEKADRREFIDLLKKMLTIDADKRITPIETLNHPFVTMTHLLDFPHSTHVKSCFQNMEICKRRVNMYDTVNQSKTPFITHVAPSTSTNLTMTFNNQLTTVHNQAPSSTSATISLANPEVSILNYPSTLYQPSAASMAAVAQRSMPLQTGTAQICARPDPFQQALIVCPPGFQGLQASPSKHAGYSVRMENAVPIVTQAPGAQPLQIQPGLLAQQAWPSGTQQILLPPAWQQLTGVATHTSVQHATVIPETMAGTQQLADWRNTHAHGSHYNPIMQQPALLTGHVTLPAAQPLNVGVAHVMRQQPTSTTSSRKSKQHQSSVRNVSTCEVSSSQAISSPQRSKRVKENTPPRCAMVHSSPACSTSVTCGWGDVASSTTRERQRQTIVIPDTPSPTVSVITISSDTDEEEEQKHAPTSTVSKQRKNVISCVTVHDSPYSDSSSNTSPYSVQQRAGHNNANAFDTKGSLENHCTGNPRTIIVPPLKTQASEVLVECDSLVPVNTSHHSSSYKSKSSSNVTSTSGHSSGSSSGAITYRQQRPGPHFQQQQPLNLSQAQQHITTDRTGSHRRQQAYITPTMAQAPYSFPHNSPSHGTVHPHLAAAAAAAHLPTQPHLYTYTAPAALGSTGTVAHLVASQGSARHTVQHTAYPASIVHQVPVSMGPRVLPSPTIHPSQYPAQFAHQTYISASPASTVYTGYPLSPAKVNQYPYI
T14 sequence (Q9NYY3 whole entry): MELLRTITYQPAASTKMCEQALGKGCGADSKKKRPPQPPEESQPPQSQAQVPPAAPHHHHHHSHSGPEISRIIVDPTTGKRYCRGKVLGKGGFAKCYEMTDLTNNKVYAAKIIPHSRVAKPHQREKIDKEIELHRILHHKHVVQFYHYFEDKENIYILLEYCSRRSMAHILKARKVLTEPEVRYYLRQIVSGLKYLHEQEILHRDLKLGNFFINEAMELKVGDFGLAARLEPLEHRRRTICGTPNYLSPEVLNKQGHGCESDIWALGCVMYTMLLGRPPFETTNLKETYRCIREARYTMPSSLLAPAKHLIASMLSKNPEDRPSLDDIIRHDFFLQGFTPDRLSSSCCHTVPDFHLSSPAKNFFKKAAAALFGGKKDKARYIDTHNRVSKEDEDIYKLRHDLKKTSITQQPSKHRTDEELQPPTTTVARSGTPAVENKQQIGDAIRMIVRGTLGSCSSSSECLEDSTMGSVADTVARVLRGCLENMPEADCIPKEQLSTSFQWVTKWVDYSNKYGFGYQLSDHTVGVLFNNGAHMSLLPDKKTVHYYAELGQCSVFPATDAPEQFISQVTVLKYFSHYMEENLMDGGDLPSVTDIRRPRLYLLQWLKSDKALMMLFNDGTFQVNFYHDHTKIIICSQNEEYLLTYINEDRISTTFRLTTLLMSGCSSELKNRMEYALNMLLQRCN
T23 sequence (P49759 whole entry): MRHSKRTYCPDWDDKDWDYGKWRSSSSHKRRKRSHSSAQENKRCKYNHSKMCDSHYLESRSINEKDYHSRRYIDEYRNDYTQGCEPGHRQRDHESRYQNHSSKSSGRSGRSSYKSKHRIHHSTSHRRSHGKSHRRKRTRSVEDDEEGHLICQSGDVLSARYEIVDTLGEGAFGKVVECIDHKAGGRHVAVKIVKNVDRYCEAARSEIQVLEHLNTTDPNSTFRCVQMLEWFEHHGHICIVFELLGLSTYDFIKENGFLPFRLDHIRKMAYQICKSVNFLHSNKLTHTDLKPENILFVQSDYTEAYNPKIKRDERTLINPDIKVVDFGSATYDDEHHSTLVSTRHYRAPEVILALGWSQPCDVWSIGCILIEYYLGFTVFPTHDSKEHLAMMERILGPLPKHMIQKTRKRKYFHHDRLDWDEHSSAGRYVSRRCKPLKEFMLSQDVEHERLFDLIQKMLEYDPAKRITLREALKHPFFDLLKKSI
T4 sequence (Q13464 whole entry): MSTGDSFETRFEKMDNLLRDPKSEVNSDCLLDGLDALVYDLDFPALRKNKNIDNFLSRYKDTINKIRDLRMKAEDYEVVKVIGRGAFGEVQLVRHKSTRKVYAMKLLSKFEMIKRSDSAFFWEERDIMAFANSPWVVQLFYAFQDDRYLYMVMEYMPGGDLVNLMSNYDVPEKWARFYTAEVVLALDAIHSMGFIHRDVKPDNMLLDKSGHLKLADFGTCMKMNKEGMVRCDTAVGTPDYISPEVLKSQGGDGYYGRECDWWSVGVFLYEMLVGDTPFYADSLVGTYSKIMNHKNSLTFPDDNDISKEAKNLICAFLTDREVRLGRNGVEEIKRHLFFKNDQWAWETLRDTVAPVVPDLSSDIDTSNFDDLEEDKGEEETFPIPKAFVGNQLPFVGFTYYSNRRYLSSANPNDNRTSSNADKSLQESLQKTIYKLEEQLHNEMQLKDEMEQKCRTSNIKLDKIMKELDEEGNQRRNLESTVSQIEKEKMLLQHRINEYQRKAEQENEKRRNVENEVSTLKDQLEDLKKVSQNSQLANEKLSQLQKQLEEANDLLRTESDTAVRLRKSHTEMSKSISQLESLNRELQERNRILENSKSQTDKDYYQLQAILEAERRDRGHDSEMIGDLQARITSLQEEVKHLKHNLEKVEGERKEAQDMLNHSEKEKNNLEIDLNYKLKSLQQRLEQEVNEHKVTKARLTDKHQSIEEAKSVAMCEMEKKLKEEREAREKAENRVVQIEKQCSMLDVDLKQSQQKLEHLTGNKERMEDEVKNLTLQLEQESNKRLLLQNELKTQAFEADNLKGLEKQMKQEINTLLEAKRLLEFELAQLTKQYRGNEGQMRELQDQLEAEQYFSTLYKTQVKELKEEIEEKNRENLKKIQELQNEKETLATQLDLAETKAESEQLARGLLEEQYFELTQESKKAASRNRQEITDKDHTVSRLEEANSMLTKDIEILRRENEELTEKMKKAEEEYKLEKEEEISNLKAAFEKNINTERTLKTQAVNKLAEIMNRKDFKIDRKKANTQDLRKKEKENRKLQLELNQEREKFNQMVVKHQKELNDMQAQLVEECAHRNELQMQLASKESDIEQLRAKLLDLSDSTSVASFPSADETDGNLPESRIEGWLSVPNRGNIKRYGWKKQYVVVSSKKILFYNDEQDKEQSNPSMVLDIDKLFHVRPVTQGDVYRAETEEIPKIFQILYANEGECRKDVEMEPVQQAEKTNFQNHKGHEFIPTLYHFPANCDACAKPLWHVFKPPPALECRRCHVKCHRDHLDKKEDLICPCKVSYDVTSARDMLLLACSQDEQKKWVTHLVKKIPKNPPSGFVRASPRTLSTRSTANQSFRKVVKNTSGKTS
T10 sequence (Q16620 32-822): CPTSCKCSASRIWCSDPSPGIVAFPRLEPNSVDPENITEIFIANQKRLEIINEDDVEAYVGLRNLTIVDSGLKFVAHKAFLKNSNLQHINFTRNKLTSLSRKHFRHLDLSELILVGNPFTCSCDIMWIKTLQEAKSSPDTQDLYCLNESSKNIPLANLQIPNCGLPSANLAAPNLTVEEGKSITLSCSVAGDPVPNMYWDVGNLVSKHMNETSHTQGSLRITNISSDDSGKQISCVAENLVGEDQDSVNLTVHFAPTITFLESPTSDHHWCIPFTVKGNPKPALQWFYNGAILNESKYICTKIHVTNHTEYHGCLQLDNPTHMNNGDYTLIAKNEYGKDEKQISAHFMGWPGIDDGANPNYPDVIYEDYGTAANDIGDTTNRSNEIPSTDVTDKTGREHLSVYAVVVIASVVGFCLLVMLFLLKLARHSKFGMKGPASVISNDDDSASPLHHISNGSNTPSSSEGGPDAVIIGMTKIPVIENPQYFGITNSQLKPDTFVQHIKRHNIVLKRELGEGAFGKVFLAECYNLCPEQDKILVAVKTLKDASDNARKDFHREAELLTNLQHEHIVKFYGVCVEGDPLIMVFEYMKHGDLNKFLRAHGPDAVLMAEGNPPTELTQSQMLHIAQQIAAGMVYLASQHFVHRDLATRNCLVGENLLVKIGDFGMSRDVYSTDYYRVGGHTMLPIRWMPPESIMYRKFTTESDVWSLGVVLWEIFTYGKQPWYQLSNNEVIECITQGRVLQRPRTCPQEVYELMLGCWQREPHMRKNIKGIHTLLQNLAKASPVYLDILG
T16 sequence (Q8TDX7 whole entry): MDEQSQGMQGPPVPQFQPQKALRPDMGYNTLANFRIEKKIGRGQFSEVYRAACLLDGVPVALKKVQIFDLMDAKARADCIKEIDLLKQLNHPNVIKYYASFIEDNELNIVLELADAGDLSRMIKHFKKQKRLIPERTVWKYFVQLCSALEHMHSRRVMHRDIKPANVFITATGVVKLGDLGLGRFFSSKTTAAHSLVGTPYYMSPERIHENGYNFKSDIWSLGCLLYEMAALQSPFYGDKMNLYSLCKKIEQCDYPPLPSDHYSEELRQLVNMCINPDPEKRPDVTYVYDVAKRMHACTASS

Regarding “XMD8-92 [Compound 2, reference compound]”, the “PTK2B (FAK2) % Inhibition” value on PTK2B (FAK2) (10 µM compound, ATP Km app) is recorded as 20%. Besides, the “MAPKAPK2 % Inhibition” value at MAPKAPK2 (10 µM compound, ATP Km app) worked out at 93%. Besides, at RPS6KA5 (MSK1) (10 µM compound, ATP Km app), the “RPS6KA5 (MSK1) % Inhibition” value was determined as 47%. Moreover, the “ROCK1 % Inhibition” value at ROCK1 (10 µM compound, ATP Km app) came to 16%. Further, the “CSNK1G2 (CK1 gamma 2) % Inhibition” value at CSNK1G2 (CK1 gamma 2) (10 µM compound, ATP Km app) is reported as 11%. For the same compound, the “MKNK1 (MNK1) % Inhibition” value at MKNK1 (MNK1) (10 µM compound, ATP Km app) stood at 3.65%. Also, the “FGR % Inhibition” value at FGR (10 µM compound, ATP Km app) amounted to 83%. Further, the “PRKCH (PKC eta) % Inhibition” value at PRKCH (PKC eta) (10 µM compound, ATP Km app) is recorded as 41%. For the same compound, the “EEF2K % Inhibition” value at EEF2K (10 µM compound, ATP Km app) is given as -6%. The “NTRK2 (TRKB) % Inhibition” value at NTRK2 (TRKB) (10 µM compound, ATP Km app) is 81%. In addition, on PASK (10 µM compound, ATP Km app), the “PASK % Inhibition” value is 49%. For the same compound, the “CDC42 BPA (MRCKA) % Inhibition” value on CDC42 BPA (MRCKA) (10 µM compound, ATP Km app) is -2.25%. The “HIPK2 % Inhibition” value on HIPK2 (10 µM compound, ATP Km app) is on record as 2%. The “PLK2 % Inhibition” value at PLK2 (10 µM compound, ATP Km app) worked out at 12%. The “TEK (Tie2) % Inhibition” value on TEK (Tie2) (10 µM compound, ATP Km app) is 6.54%. The “NEK7 % Inhibition” value on NEK7 (10 µM compound, ATP Km app) is 11%. Further, the “PRKACA (PKA) % Inhibition” value on PRKACA (PKA) (10 µM compound, ATP Km app) came out at 56%. Also, the “PIM2 % Inhibition” value at PIM2 (10 µM compound, ATP Km app) is 22%. Further, the “MARK3 % Inhibition” value at MARK3 (10 µM compound, ATP Km app) was found to be 28%. Besides, at SYK, the “SYK % Inhibition” value is 22%. Moreover, the “EPHB4 % Inhibition” value at EPHB4 (10 µM compound, ATP Km app) turned out to be 29%. For the same compound, the “CAMK2D (CaMKII delta) % Inhibition” value at CAMK2D (CaMKII delta) (10 µM compound, ATP Km app) worked out at 63%. In addition, the “CLK1 % Inhibition” value on CLK1 (10 µM compound, ATP Km app) was 6%.

For orientation: inhibition means the relative decrease from the control value, in per cent. In the case of `Cc1cc(Nc2nc(N)nn2C(=O)NC(C)C)ccc1Cl` [Compound 5], the inhibition at 10 µM is 23% on PTK2B (FAK2); 6.56% on MAPKAPK2; 6.35% against RPS6KA5 (MSK1); 37% against ROCK1; 10% against CSNK1G2 (CK1 gamma 2); 7% on MKNK1 (MNK1). Moreover, the inhibition at 10 µM at FGR was 54%; against PRKCH (PKC eta) it was -18%; against EEF2K it was -5.55%; against NTRK2 (TRKB), 29%; at PASK it was 1.44%; against CDC42 BPA (MRCKA), 5%. Moreover, the inhibition at 10 µM on HIPK2 is 45%; against PLK2, 63%; against TEK (Tie2) it was 40%; against NEK7, -0.441%; on PRKACA (PKA), 1.5%; on PIM2, -13%. Further, the inhibition at 10 µM on MARK3 was 25%; on SYK, greater than 80%; on EPHB4, 17%; on CAMK2D (CaMKII delta), -2.38%; against CLK1 it was 10%. Also, the “SYK % Inhibition” value at SYK (listed as SN1109056190, 10 µM) is 85%.

As for `Cc1ncc(-c2nc(Nc3ccc(C(=O)NCCN4CCCCC4)cc3)ncc2F)n1C(C)C` [Compound 3], the inhibition at 10 µM was 94% against PTK2B (FAK2); 52% against MAPKAPK2; 86% on RPS6KA5 (MSK1); 27% on ROCK1; 93% on CSNK1G2 (CK1 gamma 2); 68% against MKNK1 (MNK1). The inhibition at 10 µM against FGR was found to be 90%; on PRKCH (PKC eta) it was 54%; at EEF2K it was 1.51%; at NTRK2 (TRKB), 87%; on PASK, 30%; against CDC42 BPA (MRCKA) it was 17%. Moreover, the inhibition at 10 µM on HIPK2 turned out to be 93%; against PLK2 it was 48%; at TEK (Tie2), 73%; at NEK7, 10%; against PRKACA (PKA), 74%; against PIM2, 40%. Moreover, the inhibition at 10 µM was determined as 84% on MARK3; 90% on SYK; 83% at EPHB4; 88% against CAMK2D (CaMKII delta); 101% against CLK1.
